Several values for one entry are separate records, joined by “and”; a condition that tells them apart may be missing. Equal entries are not always repeated.
System: 186277-243-T-J2-PDC spheroids with HUVEC/MSC, viability
Assay: Anticancer human tumor 186277-243-T-J2-PDC patient-derived colon adenocarcinoma cell line growth inhibition [CLK]
Conditions: for viability, T/C: stronger effect = lower value
Method in brief: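 Multi-cell-type spheroids combined patient-derived tumor cells with HUVEC endothelial cells and human mesenchymal stem cells. Paired agents were dosed in half-log steps down from about clinical Cmax, or from 10 microM where Cmax was unknown.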

[1] = curve of first compound, second compound 0.0316 µM
[2] = curve of first compound, second compound 0.1 µM
[3] = curve of first compound, second compound 0.316 µM
[4] = curve of first compound, second compound 1 µM
[5] = curve of first compound, second compound 3.16 µM
[6] = curve of first compound, second compound 10 µM
[7] = second compound 0.0316 µM, first compound 0.0316 µM
[8] = second compound 0.0316 µM, first compound 0.1 µM
[9] = second compound 0.1 µM, first compound 0.0316 µM
[10] = second compound 0.1 µM, first compound 0.1 µM
[11] = second compound 0.316 µM, first compound 0.0316 µM
[12] = second compound 0.316 µM, first compound 0.1 µM
[13] = second compound 1 µM, first compound 0.0316 µM
[14] = second compound 1 µM, first compound 0.1 µM
[15] = second compound 3.16 µM, first compound 0.0316 µM
[16] = second compound 3.16 µM, first compound 0.1 µM
[17] = second compound 10 µM, first compound 0.0316 µM
[18] = second compound 10 µM, first compound 0.1 µM
[19] = second compound 0.0316 µM, first compound 0.316 µM
[20] = second compound 0.0316 µM, first compound 1 µM
[21] = second compound 0.0316 µM, first compound 3.16 µM
[22] = second compound 0.0316 µM, first compound 10 µM
[23] = second compound 0.1 µM, first compound 0.316 µM
[24] = second compound 0.1 µM, first compound 1 µM
[25] = second compound 0.1 µM, first compound 3.16 µM
[26] = second compound 0.1 µM, first compound 10 µM
[27] = second compound 0.316 µM, first compound 0.316 µM
[28] = second compound 0.316 µM, first compound 1 µM
[29] = second compound 0.316 µM, first compound 3.16 µM
[30] = second compound 0.316 µM, first compound 10 µM
[31] = second compound 1 µM, first compound 0.316 µM
[32] = second compound 1 µM, first compound 1 µM
[33] = second compound 1 µM, first compound 3.16 µM
[34] = second compound 1 µM, first compound 10 µM
[35] = second compound 3.16 µM, first compound 0.316 µM
[36] = second compound 3.16 µM, first compound 1 µM
[37] = second compound 3.16 µM, first compound 3.16 µM
[38] = second compound 3.16 µM, first compound 10 µM
[39] = second compound 10 µM, first compound 0.316 µM
[40] = second compound 10 µM, first compound 1 µM
[41] = second compound 10 µM, first compound 3.16 µM
[42] = second compound 10 µM, first compound 10 µM
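Further: compound exposure lasted seven days before readout.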
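Wherever viability, T/C is given: 100% = DMSO vehicle control wells.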

Structure (SMILES): Cn1ncnc1[C@H]1c2n[nH]c(=O)c3cc(F)cc(c23)N[C@@H]1c1ccc(F)cc1 + CN1CCN(c2cc(C(=O)Nc3cc4cc(-c5cnn(C)c5)ccc4cn3)ccn2)CC1
- IC50 [1]: > 0.1 µM
- IC50 [2]: > 0.1 µM
- IC50 [3]: < 0.000316 µM
- IC50 [4]: < 0.000316 µM
- IC50 [5]: < 0.000316 µM
- IC50 [6]: < 0.000316 µM
- viability, T/C (second compound 0.0316 µM, first compound 0.000316 µM): 86.9%
- viability, T/C (second compound 0.0316 µM, first compound 0.001 µM): 104%
- viability, T/C (second compound 0.0316 µM, first compound 0.00316 µM): 108%
- viability, T/C (second compound 0.0316 µM, first compound 0.01 µM): 114%
- viability, T/C [7]: 95.1%
- viability, T/C [8]: 113%
- viability, T/C (second compound 0.1 µM, first compound 0.000316 µM): 73.9%
- viability, T/C (second compound 0.1 µM, first compound 0.001 µM): 75.6%
- viability, T/C (second compound 0.1 µM, first compound 0.00316 µM): 69%
- viability, T/C (second compound 0.1 µM, first compound 0.01 µM): 82.6%
- viability, T/C [9]: 69.8%
- viability, T/C [10]: 58.6%
- viability, T/C (second compound 0.316 µM, first compound 0.000316 µM): 20.9%
- viability, T/C (second compound 0.316 µM, first compound 0.001 µM): 19.2%
- viability, T/C (second compound 0.316 µM, first compound 0.00316 µM): 22.7%
- viability, T/C (second compound 0.316 µM, first compound 0.01 µM): 20%
- viability, T/C [11]: 21.9%
- viability, T/C [12]: 19.8%
- viability, T/C (second compound 1 µM, first compound 0.000316 µM): 2.81%
- viability, T/C (second compound 1 µM, first compound 0.001 µM): 0.25%
- viability, T/C (second compound 1 µM, first compound 0.00316 µM): 0.86%
- viability, T/C (second compound 1 µM, first compound 0.01 µM): 2.93%
- viability, T/C [13]: 1.61%
- viability, T/C [14]: 0.53%
- viability, T/C (second compound 3.16 µM, first compound 0.000316 µM): 2.49%
- viability, T/C (second compound 3.16 µM, first compound 0.001 µM): 0.69%
- viability, T/C (second compound 3.16 µM, first compound 0.00316 µM): 1.36%
- viability, T/C (second compound 3.16 µM, first compound 0.01 µM): 1.46%
- viability, T/C [15]: 2.26%
- viability, T/C [16]: 0.62%
- viability, T/C (second compound 10 µM, first compound 0.000316 µM): 1.78%
- viability, T/C (second compound 10 µM, first compound 0.001 µM): 0.48%
- viability, T/C (second compound 10 µM, first compound 0.00316 µM): 0.42%
- viability, T/C (second compound 10 µM, first compound 0.01 µM): 0.58%
- viability, T/C [17]: 0.53%
- viability, T/C [18]: 0.46%

Structure (SMILES): Nc1ccn(C2OC(CO)C(O)C2(F)F)c(=O)n1 (stereo not given) + CN1CCN(c2cc(C(=O)Nc3cc4cc(-c5cnn(C)c5)ccc4cn3)ccn2)CC1
- IC50 [1]: < 0.0316 µM
- IC50 [2]: < 0.0316 µM
- IC50 [3]: < 0.0316 µM
- IC50 [4]: < 0.0316 µM
- IC50 [5]: < 0.0316 µM
- IC50 [6]: < 0.0316 µM
- viability, T/C [7]: 14%
- viability, T/C [8]: 14.4%
- viability, T/C [19]: 13.2%
- viability, T/C [20]: 15.4%
- viability, T/C [21]: 15.7%
- viability, T/C [22]: 15%
- viability, T/C [9]: 14.1%
- viability, T/C [10]: 15.4%
- viability, T/C [23]: 13.7%
- viability, T/C [24]: 15.4%
- viability, T/C [25]: 13.6%
- viability, T/C [26]: 13.5%
- viability, T/C [11]: 14.8%
- viability, T/C [12]: 12.4%
- viability, T/C [27]: 13.9%
- viability, T/C [28]: 12%
- viability, T/C [29]: 8.4%
- viability, T/C [30]: 7.19%
- viability, T/C [13]: 1.75%
- viability, T/C [14]: 1.77%
- viability, T/C [31]: 1.48%
- viability, T/C [32]: 0.16%
- viability, T/C [33]: 0.64%
- viability, T/C [34]: 0.64%
- viability, T/C [15]: 1.77%
- viability, T/C [16]: 1.46%
- viability, T/C [35]: 0.93%
- viability, T/C [36]: 4.16%
- viability, T/C [37]: 2.01%
- viability, T/C [38]: 0.57%
- viability, T/C [17]: 0.82%
- viability, T/C [18]: 0.83%
- viability, T/C [39]: 0.9%
- viability, T/C [40]: 1.08%
- viability, T/C [41]: 0.95%
- viability, T/C [42]: 0.6%

Structure (SMILES): CC(CO)NC(=O)c1cc(-c2ccc(Cl)cc2)nn(-c2cnn(C)c2)c1=O (stereo not given) + CN1CCN(c2cc(C(=O)Nc3cc4cc(-c5cnn(C)c5)ccc4cn3)ccn2)CC1
- IC50 [1]: > 10 µM
- IC50 [2]: > 10 µM
- IC50 [3]: < 0.0316 µM
- IC50 [4]: < 0.0316 µM
- IC50 [5]: < 0.0316 µM
- IC50 [6]: < 0.0316 µM
- viability, T/C [7]: 118%
- viability, T/C [8]: 111%
- viability, T/C [19]: 96.7%
- viability, T/C [20]: 102%
- viability, T/C [21]: 106%
- viability, T/C [22]: 112%
- viability, T/C [9]: 106%
- viability, T/C [10]: 92.2%
- viability, T/C [23]: 106%
- viability, T/C [24]: 103%
- viability, T/C [25]: 107%
- viability, T/C [26]: 97.3%
- viability, T/C [11]: 25%
- viability, T/C [12]: 27.6%
- viability, T/C [27]: 29.6%
- viability, T/C [28]: 30.5%
- viability, T/C [29]: 25.2%
- viability, T/C [30]: 35.1%
- viability, T/C [13]: 0.55%
- viability, T/C [14]: 0.96%
- viability, T/C [31]: 0.66%
- viability, T/C [32]: 0.35%
- viability, T/C [33]: 0.36%
- viability, T/C [34]: 0.38%
- viability, T/C [15]: 0.96%
- viability, T/C [16]: 1.12%
- viability, T/C [35]: 0.88%
- viability, T/C [36]: 1.2%
- viability, T/C [37]: 1.15%
- viability, T/C [38]: 1.66%
- viability, T/C [17]: 0.72%
- viability, T/C [18]: 0.76%
- viability, T/C [39]: 0.63%
- viability, T/C [40]: 0.88%
- viability, T/C [41]: 0.8%
- viability, T/C [42]: 0.63%

Structure (SMILES): CC1COCCN1c1cc(C2(S(C)(=N)=O)CC2)nc(-c2ccnc3[nH]ccc23)n1 (stereo not given) + CNC(=O)c1ccc(Nc2nc(OC3CCCC3)c3c(-c4ccc5nc(C)oc5c4)c[nH]c3n2)c(OC)c1
- IC50 [1]: 2.51 µM
- IC50 [2]: 1.42 µM
- IC50 [3]: 0.4 µM
- IC50 [4]: < 0.0316 µM
- IC50 [5]: < 0.0316 µM
- IC50 [6]: < 0.0316 µM
- viability, T/C [7]: 109%
- viability, T/C [8]: 109%
- viability, T/C [19]: 105%
- viability, T/C [20]: 114%
- viability, T/C [21]: 35%
- viability, T/C [22]: 13%
- viability, T/C [9]: 80.7%
- viability, T/C [10]: 77.5%
- viability, T/C [23]: 78.7%
- viability, T/C [24]: 60%
- viability, T/C [25]: 26.6%
- viability, T/C [26]: 13.7%
- viability, T/C [11]: 55.8%
- viability, T/C [12]: 57%
- viability, T/C [27]: 51.5%
- viability, T/C [28]: 39%
- viability, T/C [29]: 15.8%
- viability, T/C [30]: 10.5%
- viability, T/C [13]: 35.6%
- viability, T/C [14]: 33.4%
- viability, T/C [31]: 31.2%
- viability, T/C [32]: 22.9%
- viability, T/C [33]: 10.2%
- viability, T/C [34]: 5.07%
- viability, T/C [15]: 33.9%
- viability, T/C [16]: 31.6%
- viability, T/C [35]: 28.9%
- viability, T/C [36]: 21.6%
- viability, T/C [37]: 12.2%
- viability, T/C [38]: 5.1%
- viability, T/C [17]: 34.5%
- viability, T/C [18]: 35.6%
- viability, T/C [39]: 33%
- viability, T/C [40]: 24.9%
- viability, T/C [41]: 13%
- viability, T/C [42]: 7.43%

Structure (SMILES): Nc1ccn(C2OC(CO)C(O)C2(F)F)c(=O)n1 (stereo not given)
- viability, T/C (compound 0.0316 µM): 15.6% and 11.9%
- viability, T/C (compound 0.1 µM): 15.7% and 12.4%
- viability, T/C (compound 0.316 µM): 15.3% and 12.4%
- viability, T/C (compound 1 µM): 17.3% and 13.5%
- viability, T/C (compound 3.16 µM): 19% and 14%
- viability, T/C (compound 10 µM): 20.5% and 13.1%
- IC50 (curve of compound): < 0.0316 µM
